According to ChEMBL document CHEMBL1201862, “PubChem BioAssay data set” (2004):
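All cell lines were grown in 96-well plates and treated with compound for 48 hours. Abbreviation: GI50, concentration required for 50% inhibition of growth.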 Calls of active or inactive are those of the source. No stated cut-off is given here; in the data, active = GI50 up to about 1.1 µM and inactive = higher.

Tests used:
Experiment in all cases: NCI tumour cell line growth inhibition, 48 h
786-0 = test system: 786-0
A498 = test system: A498
A549 = test system: A549
ACHN = test system: ACHN
BT-549 = test system: BT-549
CAKI-1 = test system: CAKI-1
CCRF-CEM = test system: CCRF-CEM
COLO 205 = test system: COLO 205
DU-145 = test system: DU-145
EKVX = test system: EKVX
HCT-116 = test system: HCT-116
HCT-15 = test system: HCT-15
HL-60 = test system: HL-60
HOP-92 = test system: HOP-92
HT-29 = test system: HT-29
Hs-578T = test system: Hs-578T
IGROV-1 = test system: IGROV-1
K562 = test system: K562
KM12 = test system: KM12
LOX IMVI = test system: LOX IMVI
M14 = test system: M14
MCF7 = test system: MCF7
MDA-MB-231 = test system: MDA-MB-231
MDA-MB-435 = test system: MDA-MB-435
MDA-N = test system: MDA-N
MOLT-4 = test system: MOLT-4
NCI-H226 = test system: NCI-H226
NCI-H23 = test system: NCI-H23
NCI-H460 = test system: NCI-H460
NCI-H522 = test system: NCI-H522
NCI/ADR-RES = test system: NCI/ADR-RES
OVCAR-3 = test system: OVCAR-3
OVCAR-4 = test system: OVCAR-4
OVCAR-5 = test system: OVCAR-5
OVCAR-8 = test system: OVCAR-8
PC-3 = test system: PC-3
RPMI-8226 = test system: RPMI-8226
RXF 393 = test system: RXF 393
SF-268 = test system: SF-268
SF-295 = test system: SF-295
SF-539 = test system: SF-539
SK-MEL-2 = test system: SK-MEL-2
SK-MEL-5 = test system: SK-MEL-5
SK-OV-3 = test system: SK-OV-3
SN12C = test system: SN12C
SNB-19 = test system: SNB-19
SNB-75 = test system: SNB-75
SR = test system: SR
SW-620 = test system: SW-620
T47D = test system: T47D
TK-10 = test system: TK-10
U-251 = test system: U-251
UACC-257 = test system: UACC-257
UACC-62 = test system: UACC-62
UO-31 = test system: UO-31
HOP-62 = test system: HOP-62
Malme-3M = test system: Malme-3M
SK-MEL-28 = test system: SK-MEL-28
HCC 2998 = test system: HCC 2998

SMILES: COc1ccc(NC=O)c(C(=O)CCNC(C)=O)c1
- GI50 (786-0): > 100 µM (inactive)
- GI50 (A498): > 100 µM (inactive)
- GI50 (A549): > 100 µM (inactive)
- GI50 (ACHN): > 100 µM (inactive)
- GI50 (BT-549): > 100 µM (inactive)
- GI50 (CAKI-1): > 100 µM (inactive)
- GI50 (CCRF-CEM): > 100 µM (inactive)
- GI50 (COLO 205): > 100 µM (inactive)
- GI50 (DU-145): > 100 µM (inactive)
- GI50 (EKVX): > 100 µM (inactive)
- GI50 (HCT-116): > 100 µM (inactive)
- GI50 (HCT-15): > 100 µM
- GI50 (HL-60): > 100 µM (inactive)
- GI50 (HOP-92): > 100 µM (inactive)
- GI50 (HT-29): > 100 µM (inactive)
- GI50 (Hs-578T): > 100 µM (inactive)
- GI50 (IGROV-1): > 100 µM (inactive)
- GI50 (K562): > 100 µM (inactive)
- GI50 (KM12): > 100 µM (inactive)
- GI50 (LOX IMVI): > 100 µM (inactive)
- GI50 (M14): > 100 µM (inactive)
- GI50 (MCF7): > 100 µM (inactive)
- GI50 (MDA-MB-231): > 100 µM (inactive)
- GI50 (MDA-MB-435): > 100 µM (inactive)
- GI50 (MDA-N): > 100 µM (inactive)
- GI50 (MOLT-4): > 100 µM (inactive)
- GI50 (NCI-H226): > 100 µM (inactive)
- GI50 (NCI-H23): > 100 µM (inactive)
- GI50 (NCI-H460): > 100 µM (inactive)
- GI50 (NCI-H522): > 100 µM (inactive)
- GI50 (NCI/ADR-RES): > 100 µM (inactive)
- GI50 (OVCAR-3): > 100 µM (inactive)
- GI50 (OVCAR-4): > 100 µM (inactive)
- GI50 (OVCAR-5): > 100 µM (inactive)
- GI50 (OVCAR-8): > 100 µM (inactive)
- GI50 (PC-3): > 100 µM (inactive)
- GI50 (RPMI-8226): > 100 µM (inactive)
- GI50 (RXF 393): > 100 µM (inactive)
- GI50 (SF-268): > 100 µM (inactive)
- GI50 (SF-295): > 100 µM (inactive)
- GI50 (SF-539): > 100 µM (inactive)
- GI50 (SK-MEL-2): > 100 µM (inactive)
- GI50 (SK-MEL-5): > 100 µM (inactive)
- GI50 (SK-OV-3): > 100 µM (inactive)
- GI50 (SN12C): > 100 µM (inactive)
- GI50 (SNB-19): > 100 µM (inactive)
- GI50 (SNB-75): > 100 µM (inactive)
- GI50 (SR): > 100 µM (inactive)
- GI50 (SW-620): > 100 µM (inactive)
- GI50 (T47D): > 100 µM (inactive)
- GI50 (TK-10): > 100 µM (inactive)
- GI50 (U-251): > 100 µM (inactive)
- GI50 (UACC-257): > 100 µM (inactive)
- GI50 (UACC-62): > 100 µM (inactive)
- GI50 (UO-31): > 100 µM (inactive)

SMILES: Nc1ncc(CN2CCOCC2)c(-c2ccccc2O)n1
- GI50 (786-0): > 100 µM (inactive)
- GI50 (A498): > 100 µM (inactive)
- GI50 (A549): > 100 µM (inactive)
- GI50 (ACHN): > 100 µM (inactive)
- GI50 (BT-549): > 100 µM (inactive)
- GI50 (CAKI-1): > 100 µM (inactive)
- GI50 (CCRF-CEM): > 100 µM (inactive)
- GI50 (COLO 205): > 100 µM (inactive)
- GI50 (DU-145): > 100 µM (inactive)
- GI50 (EKVX): > 100 µM (inactive)
- GI50 (HCT-116): > 100 µM (inactive)
- GI50 (HCT-15): > 100 µM
- GI50 (HL-60): > 100 µM (inactive)
- GI50 (HOP-62): > 100 µM (inactive)
- GI50 (HOP-92): > 100 µM (inactive)
- GI50 (HT-29): > 100 µM (inactive)
- GI50 (Hs-578T): > 100 µM (inactive)
- GI50 (IGROV-1): > 100 µM (inactive)
- GI50 (K562): > 100 µM (inactive)
- GI50 (KM12): > 100 µM (inactive)
- GI50 (LOX IMVI): > 100 µM (inactive)
- GI50 (M14): > 100 µM (inactive)
- GI50 (MCF7): > 100 µM (inactive)
- GI50 (MDA-MB-231): > 100 µM (inactive)
- GI50 (MDA-MB-435): > 100 µM (inactive)
- GI50 (MDA-N): > 100 µM (inactive)
- GI50 (MOLT-4): > 100 µM (inactive)
- GI50 (Malme-3M): > 100 µM (inactive)
- GI50 (NCI-H226): > 100 µM (inactive)
- GI50 (NCI-H23): > 100 µM (inactive)
- GI50 (NCI-H460): > 100 µM (inactive)
- GI50 (NCI/ADR-RES): > 100 µM (inactive)
- GI50 (OVCAR-3): > 100 µM (inactive)
- GI50 (OVCAR-4): > 100 µM (inactive)
- GI50 (OVCAR-5): > 100 µM (inactive)
- GI50 (OVCAR-8): > 100 µM (inactive)
- GI50 (PC-3): > 100 µM (inactive)
- GI50 (RPMI-8226): > 100 µM (inactive)
- GI50 (RXF 393): > 100 µM (inactive)
- GI50 (SF-268): > 100 µM (inactive)
- GI50 (SF-295): > 100 µM (inactive)
- GI50 (SF-539): > 100 µM (inactive)
- GI50 (SK-MEL-28): > 100 µM (inactive)
- GI50 (SK-MEL-2): > 100 µM (inactive)
- GI50 (SK-MEL-5): > 100 µM (inactive)
- GI50 (SK-OV-3): > 100 µM (inactive)
- GI50 (SN12C): > 100 µM (inactive)
- GI50 (SNB-75): > 100 µM (inactive)
- GI50 (SR): > 100 µM (inactive)
- GI50 (SW-620): > 100 µM (inactive)
- GI50 (T47D): > 100 µM (inactive)
- GI50 (TK-10): > 100 µM (inactive)
- GI50 (U-251): > 100 µM (inactive)
- GI50 (UACC-257): > 100 µM (inactive)
- GI50 (UACC-62): > 100 µM (inactive)
- GI50 (UO-31): > 100 µM (inactive)

SMILES: C=C(CC)C[C@@H]1C[C@]2(C(=O)OC)c3[nH]c4ccccc4c3CCN2C1=O
- GI50 (786-0): 16 µM (inactive)
- GI50 (A498): 17.6 µM (inactive)
- GI50 (A549): 14.7 µM (inactive)
- GI50 (ACHN): 26.1 µM (inactive)
- GI50 (BT-549): 22 µM (inactive)
- GI50 (CAKI-1): 16.9 µM (inactive)
- GI50 (COLO 205): 33.9 µM (inactive)
- GI50 (DU-145): 30.4 µM (inactive)
- GI50 (EKVX): 30.8 µM (inactive)
- GI50 (HCC 2998): 18.4 µM (inactive)
- GI50 (HCT-116): 14.7 µM (inactive)
- GI50 (HCT-15): 16.6 µM
- GI50 (HL-60): 23.4 µM (inactive)
- GI50 (HOP-62): 17.9 µM (inactive)
- GI50 (HOP-92): 14.7 µM (inactive)
- GI50 (HT-29): 19.5 µM (inactive)
- GI50 (Hs-578T): 14.2 µM (inactive)
- GI50 (IGROV-1): 20.3 µM (inactive)
- GI50 (K562): 18.9 µM (inactive)
- GI50 (KM12): 24.4 µM (inactive)
- GI50 (LOX IMVI): 17.3 µM (inactive)
- GI50 (M14): 15.6 µM (inactive)
- GI50 (MCF7): 20.7 µM (inactive)
- GI50 (MDA-MB-231): 24.7 µM (inactive)
- GI50 (MDA-MB-435): 19.3 µM (inactive)
- GI50 (MDA-N): 17.4 µM (inactive)
- GI50 (MOLT-4): 23 µM (inactive)
- GI50 (Malme-3M): 20.7 µM (inactive)
- GI50 (NCI-H23): 18.9 µM (inactive)
- GI50 (NCI-H460): 21.1 µM (inactive)
- GI50 (NCI-H522): 14.6 µM (inactive)
- GI50 (NCI/ADR-RES): 19.5 µM (inactive)
- GI50 (OVCAR-3): 14.1 µM (inactive)
- GI50 (OVCAR-4): 37.8 µM (inactive)
- GI50 (OVCAR-5): 21 µM (inactive)
- GI50 (OVCAR-8): 33 µM (inactive)
- GI50 (PC-3): 16.7 µM (inactive)
- GI50 (RXF 393): 12.2 µM (inactive)
- GI50 (SF-268): 21.6 µM (inactive)
- GI50 (SF-295): 14.7 µM (inactive)
- GI50 (SF-539): 16.4 µM (inactive)
- GI50 (SK-MEL-28): 19.5 µM (inactive)
- GI50 (SK-MEL-2): 17.1 µM (inactive)
- GI50 (SK-MEL-5): 17.1 µM (inactive)
- GI50 (SK-OV-3): 21 µM (inactive)
- GI50 (SN12C): 20 µM (inactive)
- GI50 (SNB-19): 17.8 µM (inactive)
- GI50 (SNB-75): 21.3 µM (inactive)
- GI50 (SR): 29.4 µM (inactive)
- GI50 (SW-620): 16.4 µM (inactive)
- GI50 (T47D): 26.2 µM (inactive)
- GI50 (TK-10): 35.3 µM (inactive)
- GI50 (U-251): 21.1 µM (inactive)
- GI50 (UACC-257): 19.2 µM (inactive)
- GI50 (UACC-62): 16.9 µM (inactive)
- GI50 (UO-31): 17.9 µM (inactive)
